Where “and” joins values, the source holds several entries; their conditions need not be identical. Identical values can stand only once.
Columns and labels:
[1] = tested on: H. influenzae (ATCC 49766); test: MIC evaluation, optical density and percentage of inhibition; format: cell-based, Haemophilus influenza
From the text: The minimum inhibitory concentration of the following active ingredients has been assessed: • Mangifera indica extract (in propanediol/water 75/25); • Vehicule (propanediol/water 75/25, expressed as Activolo3-75%); • “Pool Mangiferin” which is the pure molecule mangiferin at the same concentration in the Mangifera indica extract in propanediol/water 75/25. • “Pool Mangifera” with is the mix of the 4 molecules (mangiferin, maclurin-C-glucoside, irifluophenone-C-glucoside, gallotanin) at the same concentration in the Mangifera indica extract in propane-diol/water 75/25.
H. influenzae (ATCC 49766) was cultured in Mueller Hinton broth as recommended by ATCC with 5% CO2. The Bacterial concentration was adjusted in Mueller Hinton broth to obtain a solution at 1.106 CFU/ml (5.104 CFU/well) (launch of culture at D-2). […] Two day later, the inhibition of H. influenzae was evaluated using Colony counter IUL instruments, flash and go model (reading at D2).
Concentrations are expressed in % (m/v).
The diluted bacterial suspension was added to columns 2 to 12. RCB medium was added to column 1 as negative control.
Optical density was determined, which correlates to the bacterial growth. Thereafter, an inhibition value (%) was determined for each condition using the following formula: […]
The percentage of inhibition must be higher or equal than 90% to reach the MIC.

P. acnes (ATCC 6919) = test: TKC (Time Kill Curve) determination; format: cell-based, Propionibacterium acnes
Method: Each strain was plated on appropriate plate and grown in the appropriate conditions. Colonies were resuspended in 5 mL of PBS to obtain a 0.5 McFarland O D (approximately 1.10^8 cfu/ml).After two days, the bacterial concentrations we readjusted in reinforced clostridial broth to obtain a solution at 1.10^6 CFU/ml (5.10^4 CFU/well). […] Bacteria quantification has been repeated at […]. For bacteria quantification a Colony counter IUL instruments, flash and go model was used. A Time Kill Curve (TKC) was performed to determine the effect of the active versus placebo on the growth of Propionibacterium acnes.

S. aureus (ATCC 33592) = test: MIC evaluation, optical density and percentage of inhibition; format: cell-based, Staphylococcus aureus
From the text: The minimum inhibitory concentration of the following active ingredients has been assessed: • Mangifera indica extract (in propanediol/water 75/25); • Vehicule (propanediol/water 75/25, expressed as Activolo3-75%); • “Pool Mangiferin” which is the pure molecule mangiferin at the same concentration in the Mangifera indica extract in propanediol/water 75/25. • “Pool Mangifera” with is the mix of the 4 molecules (mangiferin, maclurin-C-glucoside, irifluophenone-C-glucoside, gallotanin) at the same concentration in the Mangifera indica extract in propane-diol/water 75/25. S. aureus: The day before the experiment S. aureus (ATCC 33592) was plated and grown overnight at 37° C. Colonies were resuspended in 5 mL of TSB (Tryptic Soy Broth) to obtain a 0.5 McFarland D O (≈1.10^8 CFU/ml) (launch of culture at D-1). […] Concentrations are expressed in % (m/v). […] The diluted bacterial suspension was added to columns 2 to 12. RCB medium was added to column 1 as negative control. Optical density was determined, which correlates to the bacterial growth.

[2] = 0.39 10^−2 % (m/v), plate col. 12
[3] = 0.78 10^−2 % (m/v), plate col. 11
[4] = 1.56 10^−2 % (m/v), plate col. 10
[5] = 3.1310^−2 % (m/v), plate col. 9
[6] = 6.25 10^−2 % (m/v), plate col. 8
[7] = 12.5 10^−2 % (m/v), plate col. 7
[8] = 25.0 10^−2 % (m/v), plate col. 6

How did the “Optical density, H. influenza” value [1, 2] turn out when `O=c1c2cc(O)c(O)cc2oc2cc(O)c([C@@H]3O[C@H](CO)[C@@H](O)[C@H](O)[C@H]3O)c(O)c12` [pool mangiferin] was run?
The value was 0.190 and 0.197.

And the “Percentage of inhibition, H. influenza” value [1, 2]?
Its value is 1.9% and 0%.

What about the “Optical density, H. influenza” value ([1]; 0.5% (m/v), plate col. 5) of the same compound?
Its value is 0.193 and 0.191.

And the “Percentage of inhibition, H. influenza” value ([1]; 0.5% (m/v), plate col. 5)?
The value was −0.3% and 1.2%.

And the “Optical density, H. influenza” value [1, 3]?
The value was 0.188 and 0.197.

What about the “Percentage of inhibition, H. influenza” value [1, 3] of the same compound?
Its value is 3.4% and 0%.

And the “Optical density, H. influenza” value ([1]; 1% (m/v), plate col. 4)?
Its value is 0.190 and 0.183.

And the “Percentage of inhibition, H. influenza” value ([1]; 1% (m/v), plate col. 4)?
Its value is 1.9% and 7.0%.

What about the “Optical density, H. influenza” value [1, 4] of the same compound?
The value was 0.185 and 0.196.

And the “Percentage of inhibition, H. influenza” value [1, 4]?
The value was 5.5% and 0%.

What about the “antibacterial effect against H. influenza (in words)” value ([1]; 2%) of the same compound?
Its value is “no antibacterial effect”.

What about the “Optical density, H. influenza” value ([1]; 2% (m/v), plate col. 3) of the same compound?
Its value is 0.184 and 0.181.

And the “Percentage of inhibition, H. influenza” value ([1]; 2% (m/v), plate col. 3)?
Its value is 6.3% and 8.4%.

And the “Optical density, H. influenza” value [1, 5]?
Its value is 0.180 and 0.193.

And the “Percentage of inhibition, H. influenza” value [1, 5]?
The value was 9.1% and 0%.

What about the “Optical density, H. influenza” value [1, 6] of the same compound?
Its value is 0.185 and 0.197.

What about the “Percentage of inhibition, H. influenza” value [1, 6] of the same compound?
Its value is 5.5% and 0%.

And the “Optical density, H. influenza” value [1, 7]?
Its value is 0.187 and 0.195.

And the “Percentage of inhibition, H. influenza” value [1, 7]?
Its value is 4.1% and 0%.

What about the “Optical density, H. influenza” value [1, 8] of the same compound?
The value was 0.189 and 0.196.

And the “Percentage of inhibition, H. influenza” value [1, 8]?
The value was 2.6% and 0%.

What about the “Time Kill Curve P. acnes, bacteria quantification” value (“Time Kill Curve P. acnes” for short) (P. acnes (ATCC 6919); 0.5%, T0) of the same compound?
Its value is 6.0 Log10 CFU/ml.

And the “Time Kill Curve P. acnes” value (P. acnes (ATCC 6919); 0.5%, T + 4 h)?
Its value is 6.2 Log10 CFU/ml.

What about the “Time Kill Curve P. acnes” value (P. acnes (ATCC 6919); 0.5%, T + 8 h) of the same compound?
Its value is 5.7 Log10 CFU/ml.

And the “Time Kill Curve P. acnes” value (P. acnes (ATCC 6919); 0.5%, T + 24 h)?
Its value is 6.6 Log10 CFU/ml.

What about the “Time Kill Curve P. acnes” value (P. acnes (ATCC 6919); 0.5%, T + 32 h) of the same compound?
Its value is 6.7 Log10 CFU/ml.

And the “Time Kill Curve P. acnes” value (P. acnes (ATCC 6919); 0.5%, T + 48 h)?
The value was 7.8 Log10 CFU/ml.

And the “Time Kill Curve P. acnes” value (P. acnes (ATCC 6919); 1%, T0)?
Its value is 6.0 Log10 CFU/ml.

And the “Time Kill Curve P. acnes” value (P. acnes (ATCC 6919); 1%, T + 4 h)?
Its value is 6.0 Log10 CFU/ml.

What about the “Time Kill Curve P. acnes” value (P. acnes (ATCC 6919); 1%, T + 8 h) of the same compound?
Its value is 5.8 Log10 CFU/ml.

And the “Time Kill Curve P. acnes” value (P. acnes (ATCC 6919); 1%, T + 24 h)?
Its value is 6.5 Log10 CFU/ml.

And the “Time Kill Curve P. acnes” value (P. acnes (ATCC 6919); 1%, T + 32 h)?
The value was 6.7 Log10 CFU/ml.

And the “Time Kill Curve P. acnes” value (P. acnes (ATCC 6919); 1%, T + 48 h)?
The value was 7.8 Log10 CFU/ml.

What about the “Time Kill Curve P. acnes” value (P. acnes (ATCC 6919); 2%, T0) of the same compound?
The value was 6.0 Log10 CFU/ml.

And the “Time Kill Curve P. acnes” value (P. acnes (ATCC 6919); 2%, T + 4 h)?
The value was 5.7 Log10 CFU/ml.

What about the “Time Kill Curve P. acnes” value (P. acnes (ATCC 6919); 2%, T + 8 h) of the same compound?
The value was 5.7 Log10 CFU/ml.

And the “Time Kill Curve P. acnes” value (P. acnes (ATCC 6919); 2%, T + 24 h)?
Its value is 6.5 Log10 CFU/ml.

And the “Time Kill Curve P. acnes” value (P. acnes (ATCC 6919); 2%, T + 32 h)?
Its value is 6.7 Log10 CFU/ml.

What about the “Time Kill Curve P. acnes” value (P. acnes (ATCC 6919); 2%, T + 48 h) of the same compound?
The value was 7.8 Log10 CFU/ml.

What about the “Optical density, S. aureus” value (S. aureus (ATCC 33592); [2]) of the same compound?
Its value is 0.387 and 0.392.

What about the “Percentage of inhibition, S. aureus” value (S. aureus (ATCC 33592); [2]) of the same compound?
The value was 3.0% and 1.6%.

And the “Optical density, S. aureus” value (S. aureus (ATCC 33592); 0.5% (m/v), plate col. 5)?
The value was 0.363 and 0.359.

What about the “Percentage of inhibition, S. aureus” value (S. aureus (ATCC 33592); 0.5% (m/v), plate col. 5) of the same compound?
Its value is 9.8% and 11.0%.

What about the “Optical density, S. aureus” value (S. aureus (ATCC 33592); [3]) of the same compound?
The value was 0.384 and 0.366.

And the “Percentage of inhibition, S. aureus” value (S. aureus (ATCC 33592); [3])?
Its value is 3.9% and 9.0%.

What about the “Optical density, S. aureus” value (S. aureus (ATCC 33592); 1% (m/v), plate col. 4) of the same compound?
The value was 0.346 and 0.348.

What about the “Percentage of inhibition, S. aureus” value (S. aureus (ATCC 33592); 1% (m/v), plate col. 4) of the same compound?
The value was 14.7% and 14.1%.

And the “Optical density, S. aureus” value (S. aureus (ATCC 33592); [4])?
Its value is 0.365 and 0.369.

What about the “Percentage of inhibition, S. aureus” value (S. aureus (ATCC 33592); [4]) of the same compound?
The value was 9.3% and 8.1%.

What about the “antibacterial effect on S. aureus (in words)” value (S. aureus (ATCC 33592); 2%) of the same compound?
Its value is “slight antibacterial effect”.

And the “Optical density, S. aureus” value (S. aureus (ATCC 33592); 2% (m/v), plate col. 3)?
The value was 0.320 and 0.327.

And the “Percentage of inhibition, S. aureus” value (S. aureus (ATCC 33592); 2% (m/v), plate col. 3)?
Its value is 22.1% and 20.1%.

What about the “Optical density, S. aureus” value (S. aureus (ATCC 33592); [5]) of the same compound?
The value was 0.377 and 0.378.

And the “Percentage of inhibition, S. aureus” value (S. aureus (ATCC 33592); [5])?
Its value is 5.9% and 5.6%.

And the “Optical density, S. aureus” value (S. aureus (ATCC 33592); [6])?
The value was 0.370 and 0.364.

What about the “Percentage of inhibition, S. aureus” value (S. aureus (ATCC 33592); [6]) of the same compound?
Its value is 7.9% and 9.6%.

What about the “Optical density, S. aureus” value (S. aureus (ATCC 33592); [7]) of the same compound?
The value was 0.368 and 0.367.

And the “Percentage of inhibition, S. aureus” value (S. aureus (ATCC 33592); [7])?
The value was 8.4% and 8.7%.

And the “Optical density, S. aureus” value (S. aureus (ATCC 33592); [8])?
The value was 0.370 and 0.368.

What about the “Percentage of inhibition, S. aureus” value (S. aureus (ATCC 33592); [8]) of the same compound?
Its value is 7.9% and 8.4%.

Reference: patent publication US20250352458A1, “IMPROVEMENTS IN OR RELATING TO EXTRACTS” (Givaudan SA, priority 2020, published 2025)
